Literature values in patent US12622907B2, “Hair loss therapy” (NIRMANA BIO, INC., priority 2021, dated 2026).
Like-named read-outs stand apart in the source and are kept apart here.

Key:
[1] = tested on: 943 women and 461 men; settings: for subjects who had to stop treatment because of a side effect: low doses used for hair loss
[2] = tested on: men with male pattern hair loss; settings: oral 1 mg/day

Compound | frequency of side effects ([1]; low doses which are used to treat hair loss) | subjects who had to stop treatment because of a side effect ([1]; men (461)) [%] | subjects who had to stop treatment because of a side effect ([1]; women (943)) [%] | recipients with no further hair loss compared with baseline (hair counts) ([2]; men with vertex hair loss, after 2 years) [%] | recipients with improvement in hair growth in global photographs ([2]; men with vertex hair loss, at 1 year) [%] | recipients with improvement in hair growth in global photographs ([2]; men with vertex hair loss, at 2 years) [%] | effect on hair growth and hair loss ([2]; significant proportion of men with male pattern hair loss)
Nc1cc(N2CCCCC2)nc(N)[n+]1[O-] [minoxidil, Minoxidil] | very uncommon | 0.5 | 2.5 | – | – | – | –
CC(C)(C)NC(=O)[C@H]1CC[C@H]2[C@@H]3CC[C@H]4NC(=O)C=C[C@]4(C)[C@H]3CC[C@]12C [finasteride, Finasteride] | – | – | – | 83 | 48 | 66 | promotes hair growth and prevents further hair loss
